The values that follow come from US8143263B2, “Therapeutic agents” (Astrazeneca AB, priority 2008, dated 2012).

The structures appear in SMILES notation. pEC50: −log10 of the molar value.

The target in the test is T1, recombinant human pancreatic GLK (Homo sapiens, UniProt P35557).
T1 sequence (P35557 1-465): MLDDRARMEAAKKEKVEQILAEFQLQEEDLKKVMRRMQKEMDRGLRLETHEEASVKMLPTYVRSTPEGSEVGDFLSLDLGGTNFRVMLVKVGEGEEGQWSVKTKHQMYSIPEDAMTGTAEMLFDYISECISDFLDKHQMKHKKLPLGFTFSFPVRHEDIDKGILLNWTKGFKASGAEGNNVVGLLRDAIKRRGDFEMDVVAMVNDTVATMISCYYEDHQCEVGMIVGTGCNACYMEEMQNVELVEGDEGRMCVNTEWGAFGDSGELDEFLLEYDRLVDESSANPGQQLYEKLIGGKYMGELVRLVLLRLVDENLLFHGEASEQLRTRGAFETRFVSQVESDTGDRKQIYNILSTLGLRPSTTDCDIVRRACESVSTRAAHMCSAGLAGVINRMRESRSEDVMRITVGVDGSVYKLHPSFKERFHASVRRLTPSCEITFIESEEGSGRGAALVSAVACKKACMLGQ
Briefly: biochemical.
In general, pEC50 refers to the EC50 on a negative log10 scale, so that one unit is a factor of ten. `Cc1ccc(NC(=O)C(CCS(C)(=O)=O)Oc2ncnc3c2cnn3C)nc1` (centres unmarked) [2-(1-methylpyrazolo[4,5-e]pyrimidin-4-yl)oxy-N-(5-methyl-2-pyridyl)-4-methylsulfonyl-butanamide]: the pEC50 is < 4.00. On to `Cc1nnc(NC(=O)C(COC(C)C)Oc2ncnc3c2cnn3-c2ccccc2Cl)o1` (centres unmarked) [2-[1-(2-chlorophenyl)pyrazolo[4,5-e]pyrimidin-4-yl]oxy-3-isopropoxy-N-(5-methyl-1,3,4-oxadiazol-2-yl)propanamide], for which the pEC50 was < 4.00. `CC(C)OCC(Oc1ncnc2c1cnn2-c1ccccc1Cl)C(=O)Nc1ncccn1` (centres unmarked) [2-[1-(2-chlorophenyl)pyrazolo[4,5-e]pyrimidin-4-yl]oxy-3-isopropoxy-N-pyrimidin-2-yl-propanamide]: the pEC50 was < 4.00. In the case of `CC(C)OCC(Oc1ncnc2c1cnn2-c1ccccc1Cl)C(=O)Nc1cc(C#N)ccn1` (centres unmarked) [2-[1-(2-chlorophenyl)pyrazolo[4,5-e]pyrimidin-4-yl]oxy-N-(4-cyano-2-pyridyl)-3-isopropoxy-propanamide] it was < 4.00; in that of `COCCOCCC(Sc1ncnc2c1cnn2-c1ccccc1Cl)C(=O)Nc1ccc(C)cn1` (centres unmarked) [2-[1-(2-chlorophenyl)pyrazolo[4,5-e]pyrimidin-4-yl]sulfanyl-4-(2-methoxyethoxy)-N-(5-methyl-2-pyridyl)butanamide], < 4.00; in that of `CCCCCCC(Sc1ncnc2c1cnn2-c1ccccc1Cl)C(=O)Nc1ccc(C)cn1` (centres unmarked) [2-[1-(2-chlorophenyl)pyrazolo[4,5-e]pyrimidin-4-yl]sulfanyl-N-(5-methyl-2-pyridyl)octanamide], < 4.00. Turning to `Cc1cccnc1NC(=O)[C@H](COC(C)C)Oc1ncnc2c1cnn2-c1ncccc1Cl` [(2S)-2-[1-(3-chloro-2-pyridyl)pyrazolo[4,5-e]pyrimidin-4-yl]oxy-3-isopropoxy-N-(3-methyl-2-pyridyl)propanamide], the pEC50 is < 4.00. The value for `COc1ccnc(NC(=O)[C@H](COC(C)C)Oc2ncnc3c2cnn3-c2ncccc2Cl)c1` [(2S)-2-[1-(3-chloro-2-pyridyl)pyrazolo[4,5-e]pyrimidin-4-yl]oxy-3-isopropoxy-N-(4-methoxy-2-pyridyl)propanamide] was < 4.00; that for `Cc1nc(NC(=O)[C@H](COC(C)C)Oc2ncnc3c2cnn3-c2ncccc2Cl)nn1C` [(2S)-2-[1-(3-chloro-2-pyridyl)pyrazolo[4,5-e]pyrimidin-4-yl]oxy-N-(1,5-dimethyl-1,2,4-triazol-3-yl)-3-isopropoxy-propanamide] was < 4.00; that for `COc1ccccc1-n1ncc2c(O[C@H](C)C(=O)Nc3ccc(C)cn3)ncnc21` [(R)-2-[1-(2-methoxyphenyl)pyrazolo[4,5-e]pyrimidin-4-yl]oxy-N-(5-methyl-2-pyridyl)propanamide] was < 4.00.

As for `COCC[C@@H](Oc1ncnc2c1cnn2-c1ccccn1)C(=O)Nc1ccc(C)cn1` [(R)-4-methoxy-N-(5-methyl-2-pyridyl)-2-[1-(2-pyridyl)pyrazolo[4,5-e]pyrimidin-4-yl]oxy-butanamide], the pEC50 was < 4.00. For the compound `COCC(Oc1ncnc2c1cnn2-c1ccccc1Cl)C(=O)Nc1ccc(C)cn1` (centres unmarked) [Example 1, 2-{[1-(2-chlorophenyl)-1H-pyrazolo[3,4-d]pyrimidin-4-yl]oxy}-3-methoxy-N-(5-methylpyridin-2-yl)propanamide], the pEC50 is 6.21.

As to `COC[C@@H](Oc1ncnc2c1cnn2-c1ccccc1Cl)C(=O)Nc1ccc(C)cn1` [Example 2, (R)-2-{[1-(2-chlorophenyl)-1H-pyrazolo[3,4-d]pyrimidin-4-yl]oxy}-3-methoxy-N-(5-methylpyridin-2-yl)propanamide], the pEC50 was ≤ 4.00.

With `COC[C@H](Oc1ncnc2c1cnn2-c1ccccc1Cl)C(=O)Nc1ccc(C)cn1` [Example 3, (S)-2-{[1-(2-chlorophenyl)-1H-pyrazolo[3,4-d]pyrimidin-4-yl]oxy}-3-methoxy-N-(5-methylpyridin-2-yl)propanamide], the pEC50 was 6.77. In the case of `COCC(Oc1ncnc2c1cnn2-c1ccccc1OC)C(=O)Nc1ccc(C)cn1` (centres unmarked) [Example 4, 3-methoxy-2-{[1-(2-methoxyphenyl)-1H-pyrazolo[3,4-d]pyrimidin-4-yl]oxy}-N-(5-methylpyridin-2-yl)propanamide] it was 5.47; in that of `COC[C@@H](Oc1ncnc2c1cnn2-c1ccccc1OC)C(=O)Nc1ccc(C)cn1` [Example 5, (R)-3-methoxy-2-{[1-(2-methoxyphenyl)-1H-pyrazolo[3,4-d]pyrimidin-4-yl]oxy}-N-(5-methylpyridin-2-yl)propanamide], ≤ 4.00; in that of `COC[C@H](Oc1ncnc2c1cnn2-c1ccccc1OC)C(=O)Nc1ccc(C)cn1` [Example 6, (S)-3-methoxy-2-{[1-(2-methoxyphenyl)-1H-pyrazolo[3,4-d]pyrimidin-4-yl]oxy}-N-(5-methylpyridin-2-yl)propanamide], 6.17. Consider `COCC(Oc1ncnc2c1cnn2-c1ccc(Cl)cc1Cl)C(=O)Nc1ccc(C)cn1` (centres unmarked) [Example 7, 2-{[1-(2,4-Dichlorophenyl)-1H-pyrazolo[3,4-d]pyrimidin-4-yl]oxy}-3-methoxy-N-(5-methylpyridin-2-yl)propanamide], for which the pEC50 is 5.43. In the case of `COCC(Oc1ncnc2c1cnn2C)C(=O)Nc1ccc(C)cn1` (centres unmarked) [Example 8, 3-methoxy-2-[(1-methyl-1H-pyrazolo[3,4-d]pyrimidin-4-yl)oxy]-N-(5-methylpyridin-2-yl)propanamide] it was ≤ 4.00; in that of `Cc1ccc(NC(=O)C(CCS(C)(=O)=O)Oc2ncnc3c2cnn3-c2ccccc2Cl)nc1` (centres unmarked) [Example 9, 2-{[1-(2-chlorophenyl)-1H-pyrazolo[3,4-d]pyrimidin-4-yl]oxy}-N-(5-methylpyridin-2-yl)-4-(methylsulfonyl)butanamide], 6.28.

Consider `COc1ccccc1-n1ncc2c(OC(CCS(C)(=O)=O)C(=O)Nc3ccc(C)cn3)ncnc21` (centres unmarked) [Example 10, 2-{[1-(2-methoxyphenyl)-1H-pyrazolo[3,4-d]pyrimidin-4-yl]oxy}-N-(5-methylpyridin-2-yl)-4-(methylsulfonyl)butanamide], for which the pEC50 was 5.57. Turning to `COc1ccccc1-n1ncc2c(O[C@H](CCS(C)(=O)=O)C(=O)Nc3ccc(C)cn3)ncnc21` [Example 11, (R)-2-{[1-(2-methoxyphenyl)-1H-pyrazolo[3,4-d]pyrimidin-4-yl]oxy}-N-(5-methylpyridin-2-yl)-4-(methylsulfonyl)butanamide], the pEC50 was ≤ 4.00. The value for `COc1ccccc1-n1ncc2c(O[C@@H](CCS(C)(=O)=O)C(=O)Nc3ccc(C)cn3)ncnc21` [Example 12, (S)-2-{[1-(2-methoxyphenyl)-1H-pyrazolo[3,4-d]pyrimidin-4-yl]oxy}-N-(5-methylpyridin-2-yl)-4-(methylsulfonyl)butanamide] was 5.62; that for `COCCC(Oc1ncnc2c1cnn2-c1cccc(OC)c1)C(=O)Nc1ccc(C)cn1` (centres unmarked) [Example 13, 4-methoxy-2-{[1-(3-methoxyphenyl)-1H-pyrazolo[3,4-d]pyrimidin-4-yl]oxy}-N-(5-methylpyridin-2-yl)butanamide] was 5.85; that for `COCC[C@@H](Oc1ncnc2c1cnn2-c1cccc(OC)c1)C(=O)Nc1ccc(C)cn1` [Example 14, (R)-4-methoxy-2-{[1-(3-methoxyphenyl)-1H-pyrazolo[3,4-d]pyrimidin-4-yl]oxy}-N-(5-methylpyridin-2-yl)butanamide] was ≤ 4.00. The value for `COCC[C@H](Oc1ncnc2c1cnn2-c1cccc(OC)c1)C(=O)Nc1ccc(C)cn1` [Example 15, (S)-4-methoxy-2-{[1-(3-methoxyphenyl)-1H-pyrazolo[3,4-d]pyrimidin-4-yl]oxy}-N-(5-methylpyridin-2-yl)butanamide] was 5.57. For `COCCC(Oc1ncnc2c1cnn2-c1ccccc1C)C(=O)Nc1ccc(C)cn1` (centres unmarked) [Example 16, 4-methoxy-2-{[1-(2-methylphenyl)-1H-pyrazolo[3,4-d]pyrimidin-4-yl]oxy}-N-(5-methylpyridin-2-yl)butanamide], the pEC50 is 6.54.

`COCC[C@H](Oc1ncnc2c1cnn2-c1ccccc1C)C(=O)Nc1ccc(C)cn1` [Example 17, (S)-4-methoxy-2-{[1-(2-methylphenyl)-1H-pyrazolo[3,4-d]pyrimidin-4-yl]oxy}-N-(5-methylpyridin-2-yl)butanamide]: the pEC50 is 7.19. In the case of `COCC[C@@H](Oc1ncnc2c1cnn2-c1ccccc1C)C(=O)Nc1ccc(C)cn1` [Example 18, (R)-4-methoxy-2-{[1-(2-methylphenyl)-1H-pyrazolo[3,4-d]pyrimidin-4-yl]oxy}-N-(5-methylpyridin-2-yl)butanamide] it was 4.49.

For `COCCC(Oc1ncnc2c1cnn2-c1ccccc1Cl)C(=O)Nc1ccc(C)cn1` (centres unmarked) [Example 19, 2-{[1-(2-Chlorophenyl)-1H-pyrazolo[3,4-d]pyrimidin-4-yl]oxy}-4-methoxy-N-(5-methylpyridin-2-yl)butanamide], the pEC50 was 7.02. In the case of `COCC[C@@H](Oc1ncnc2c1cnn2-c1ccccc1Cl)C(=O)Nc1ccc(C)cn1` [Example 20, (R)-2-{[1-(2-Chlorophenyl)-1H-pyrazolo[3,4-d]pyrimidin-4-yl]oxy}-4-methoxy-N-(5-methylpyridin-2-yl)butanamide] it was 5.03; in that of `COCC[C@H](Oc1ncnc2c1cnn2-c1ccccc1Cl)C(=O)Nc1ccc(C)cn1` [Example 21, (S)-2-{[1-(2-chlorophenyl)-1H-pyrazolo[3,4-d]pyrimidin-4-yl]oxy}-4-methoxy-N-(5-methylpyridin-2-yl)butanamide], 7.49.
